According to ChEMBL document CHEMBL5244237, “Recent developments of small molecules targeting RNA m6A modulators” (Eur J Med Chem, 2020):
Values belong to the compound of their own block, whether it stands above or below them.

Tests used:
MONO-MAC-6 = assay: Antiproliferative activity against human MONO-MAC-6 cells; assay type: functional, cell-based
[1] = target: T1, Alpha-ketoglutarate-dependent dioxygenase FTO (Homo sapiens, UniProt Q9C0B1); assay: Inhibition of FTO (unknown origin) mediated m6A methylation by HPLC analysis
T1 sequence (Q9C0B1 whole entry): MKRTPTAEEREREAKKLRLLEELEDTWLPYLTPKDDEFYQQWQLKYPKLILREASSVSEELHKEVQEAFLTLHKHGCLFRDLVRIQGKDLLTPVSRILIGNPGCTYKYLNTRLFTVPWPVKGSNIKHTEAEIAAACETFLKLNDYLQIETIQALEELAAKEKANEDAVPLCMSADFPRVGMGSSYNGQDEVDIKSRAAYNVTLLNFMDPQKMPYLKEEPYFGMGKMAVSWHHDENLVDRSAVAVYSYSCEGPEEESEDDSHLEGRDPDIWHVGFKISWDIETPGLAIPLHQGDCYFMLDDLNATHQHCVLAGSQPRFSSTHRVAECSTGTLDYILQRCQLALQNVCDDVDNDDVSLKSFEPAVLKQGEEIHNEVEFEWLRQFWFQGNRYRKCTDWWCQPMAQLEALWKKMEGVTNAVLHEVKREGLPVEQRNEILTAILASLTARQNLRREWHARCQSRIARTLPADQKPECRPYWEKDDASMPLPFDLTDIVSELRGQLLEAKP

[2] = target: T1, Alpha-ketoglutarate-dependent dioxygenase FTO; assay: Inhibition of full length human FTO expressed in Escherichia coli BL21(DE3) rosetta by HPLC analysis
[3] = target: T1, Alpha-ketoglutarate-dependent dioxygenase FTO; assay: Displacement of dm6A-containing ssDNA from truncated N-terminal his-tagged human FTO (31 residues) mediated demethylation activity expressed in Escherichia coli BL21(DE3) using ssDNA (5'-ATTGTCA(dm6A)CAGCAGA-FAM-3') as substrate by fluorescence polarization assay
[4] = target: T1, Alpha-ketoglutarate-dependent dioxygenase FTO
Description: Inhibition of FTO (unknown origin) (31 to 505 residues) by LC/MS analysis

IC50 [1]: 2.6 µM
SMILES: Cc1noc(C)c1-c1cc(Cl)c(Nc2ccccc2C(=O)NO)c(Cl)c1
IC50 (MONO-MAC-6): 0.8 µM

IC50 [2]: 2.6 µM
SMILES: O=C(O)c1ccnc(C(=O)NS(=O)(=O)c2ccc(C(F)(F)F)cc2)c1

IC50 [3]: 17.4 µM
SMILES: Cc1ccc(Cl)c(Nc2ccccc2C(=O)O)c1Cl [MECLOFENAMIC ACID]

SMILES: C[C@@H]1C[C@H]2O[C@@H]2/C=C\C=C\C(=O)Cc2c(Cl)c(O)cc(O)c2C(=O)O1 [RADICICOL]
IC50 [4]: 16 µM
